{"source": "ChEMBL document CHEMBL4507263", "about": "“Data for DCP probe BAY-474” (2021)", "key": {"[1]": {"biological_target": "Proto-oncogene tyrosine-protein kinase ROS (Homo sapiens) (UniProt P08922)", "assay": "Ros (h) Millipore kinase activity assay", "details": "Compound concentration 1.0 uM"}, "[2]": {"biological_target": "Serine/threonine-protein kinase ULK3 (Homo sapiens) (UniProt Q6PHR2)", "assay": "ULK3 (h) Millipore kinase activity assay", "details": "Compound concentration 1.0 uM"}, "Rattus norvegicus": {"organism": "Rattus norvegicus", "assay": "Inhibition of Glutamate, NMDA, Phencyclidine at 10 µM in the Eurofins-Panlabs radioligand binding assay (Eurofins_assay_233000)", "format": "protein-complex assay", "details": "Compound concentration 10.0 uM"}, "Homo sapiens": {"organism": "Homo sapiens", "assay": "Inhibition of Nicotinic Acetylcholine at compound concentration of 10.0 uM in the Eurofins-Panlabs radioligand binding assay (Eurofins_assay_258590)", "format": "protein-complex assay", "details": "Compound concentration 10.0 uM"}, "[3]": {"biological_target": "Protein kinase C epsilon type (Homo sapiens) (UniProt Q02156)", "sequence (Q02156 whole entry)": "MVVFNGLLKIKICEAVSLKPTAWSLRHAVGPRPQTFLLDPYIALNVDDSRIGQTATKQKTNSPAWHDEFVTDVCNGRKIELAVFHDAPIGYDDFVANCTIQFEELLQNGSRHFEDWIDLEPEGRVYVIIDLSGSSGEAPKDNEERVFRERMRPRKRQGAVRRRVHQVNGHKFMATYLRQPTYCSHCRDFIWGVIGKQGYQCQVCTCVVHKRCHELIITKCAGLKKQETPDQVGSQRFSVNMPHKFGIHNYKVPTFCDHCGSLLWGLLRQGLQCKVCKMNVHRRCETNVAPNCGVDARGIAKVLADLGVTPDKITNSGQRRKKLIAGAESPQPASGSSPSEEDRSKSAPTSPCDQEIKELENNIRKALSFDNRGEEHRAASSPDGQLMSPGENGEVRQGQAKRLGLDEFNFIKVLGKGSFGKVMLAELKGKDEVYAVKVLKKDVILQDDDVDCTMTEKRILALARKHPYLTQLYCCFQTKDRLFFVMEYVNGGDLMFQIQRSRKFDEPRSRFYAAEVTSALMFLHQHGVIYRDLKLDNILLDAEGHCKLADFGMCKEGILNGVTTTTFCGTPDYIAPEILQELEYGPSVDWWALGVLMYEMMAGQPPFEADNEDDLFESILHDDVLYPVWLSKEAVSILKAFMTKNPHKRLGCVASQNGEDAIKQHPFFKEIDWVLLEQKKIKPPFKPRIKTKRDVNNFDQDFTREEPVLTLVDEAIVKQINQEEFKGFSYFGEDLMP", "assay": "PKCepsilon (h) Millipore kinase activity assay", "details": "Compound concentration 1.0 uM"}, "[4]": {"biological_target": "Tyrosine-protein kinase FRK (Homo sapiens) (UniProt P42685)", "assay": "PTK5 (h) Millipore kinase activity assay", "details": "Compound concentration 1.0 uM"}, "[5]": {"biological_target": "T1, Alpha-1D adrenergic receptor (Homo sapiens) (UniProt P25100)", "T1 sequence (whole entry)": "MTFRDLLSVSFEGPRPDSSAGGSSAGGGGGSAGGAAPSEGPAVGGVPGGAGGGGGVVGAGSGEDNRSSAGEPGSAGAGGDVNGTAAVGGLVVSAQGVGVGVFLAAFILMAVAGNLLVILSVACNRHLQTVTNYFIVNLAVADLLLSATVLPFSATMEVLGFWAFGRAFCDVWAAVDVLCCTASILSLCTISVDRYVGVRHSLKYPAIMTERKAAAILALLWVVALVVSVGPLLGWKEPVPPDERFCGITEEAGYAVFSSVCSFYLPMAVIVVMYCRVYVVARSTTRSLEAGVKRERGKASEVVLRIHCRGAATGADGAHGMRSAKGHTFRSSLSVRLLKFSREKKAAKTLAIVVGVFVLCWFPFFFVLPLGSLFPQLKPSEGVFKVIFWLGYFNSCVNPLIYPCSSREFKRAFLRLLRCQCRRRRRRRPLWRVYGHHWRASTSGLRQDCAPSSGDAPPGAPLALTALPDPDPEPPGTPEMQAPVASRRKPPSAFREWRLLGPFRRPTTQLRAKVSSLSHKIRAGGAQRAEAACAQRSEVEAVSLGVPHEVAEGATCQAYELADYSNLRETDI", "assay": "Inhibition of Adrenergic alpha1D at 10 µM in the Eurofins-Panlabs radioligand binding assay (Eurofins_assay_203400)", "details": "Compound concentration 10.0 uM"}, "[6]": {"biological_target": "Kappa-type opioid receptor (Homo sapiens) (UniProt P41145)", "details": "Compound concentration 10.0 uM"}, "[7]": {"biological_target": "Serine/threonine-protein kinase TAO3 (Homo sapiens) (UniProt Q9H2K8)", "details": "Compound concentration 1000.0 nM"}, "[8]": {"biological_target": "Serine/threonine-protein kinase RIO1 (Homo sapiens) (UniProt Q9BRS2)", "details": "Compound concentration 1000.0 nM"}, "[9]": {"biological_target": "MAP kinase-interacting serine/threonine-protein kinase 1 (Homo sapiens) (UniProt Q9BUB5)", "details": "Compound concentration 1000.0 nM"}, "[10]": {"biological_target": "Receptor-interacting serine/threonine-protein kinase 2 (Homo sapiens) (UniProt O43353)", "sequence (O43353 whole entry)": "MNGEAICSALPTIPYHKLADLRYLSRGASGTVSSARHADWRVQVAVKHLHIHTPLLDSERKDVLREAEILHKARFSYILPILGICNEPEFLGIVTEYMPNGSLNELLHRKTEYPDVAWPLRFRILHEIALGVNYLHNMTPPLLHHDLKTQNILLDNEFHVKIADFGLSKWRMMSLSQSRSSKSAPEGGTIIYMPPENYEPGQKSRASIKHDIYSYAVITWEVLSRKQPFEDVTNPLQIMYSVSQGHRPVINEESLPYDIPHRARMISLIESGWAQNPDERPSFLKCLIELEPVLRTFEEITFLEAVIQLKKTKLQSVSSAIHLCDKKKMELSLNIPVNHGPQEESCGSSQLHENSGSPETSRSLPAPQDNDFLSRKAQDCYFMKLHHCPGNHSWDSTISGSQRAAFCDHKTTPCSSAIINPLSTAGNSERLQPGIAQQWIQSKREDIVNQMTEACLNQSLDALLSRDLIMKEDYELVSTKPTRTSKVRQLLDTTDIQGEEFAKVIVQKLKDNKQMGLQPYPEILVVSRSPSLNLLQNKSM", "details": "Compound concentration 1000.0 nM"}, "[11]": {"biological_target": "Calcium/calmodulin-dependent protein kinase kinase 2 (Homo sapiens) (UniProt Q96RR4)", "details": "Compound concentration 1000.0 nM"}, "[12]": {"biological_target": "Tyrosine-protein kinase JAK1 (Homo sapiens) (UniProt P23458)", "sequence (P23458 whole entry)": "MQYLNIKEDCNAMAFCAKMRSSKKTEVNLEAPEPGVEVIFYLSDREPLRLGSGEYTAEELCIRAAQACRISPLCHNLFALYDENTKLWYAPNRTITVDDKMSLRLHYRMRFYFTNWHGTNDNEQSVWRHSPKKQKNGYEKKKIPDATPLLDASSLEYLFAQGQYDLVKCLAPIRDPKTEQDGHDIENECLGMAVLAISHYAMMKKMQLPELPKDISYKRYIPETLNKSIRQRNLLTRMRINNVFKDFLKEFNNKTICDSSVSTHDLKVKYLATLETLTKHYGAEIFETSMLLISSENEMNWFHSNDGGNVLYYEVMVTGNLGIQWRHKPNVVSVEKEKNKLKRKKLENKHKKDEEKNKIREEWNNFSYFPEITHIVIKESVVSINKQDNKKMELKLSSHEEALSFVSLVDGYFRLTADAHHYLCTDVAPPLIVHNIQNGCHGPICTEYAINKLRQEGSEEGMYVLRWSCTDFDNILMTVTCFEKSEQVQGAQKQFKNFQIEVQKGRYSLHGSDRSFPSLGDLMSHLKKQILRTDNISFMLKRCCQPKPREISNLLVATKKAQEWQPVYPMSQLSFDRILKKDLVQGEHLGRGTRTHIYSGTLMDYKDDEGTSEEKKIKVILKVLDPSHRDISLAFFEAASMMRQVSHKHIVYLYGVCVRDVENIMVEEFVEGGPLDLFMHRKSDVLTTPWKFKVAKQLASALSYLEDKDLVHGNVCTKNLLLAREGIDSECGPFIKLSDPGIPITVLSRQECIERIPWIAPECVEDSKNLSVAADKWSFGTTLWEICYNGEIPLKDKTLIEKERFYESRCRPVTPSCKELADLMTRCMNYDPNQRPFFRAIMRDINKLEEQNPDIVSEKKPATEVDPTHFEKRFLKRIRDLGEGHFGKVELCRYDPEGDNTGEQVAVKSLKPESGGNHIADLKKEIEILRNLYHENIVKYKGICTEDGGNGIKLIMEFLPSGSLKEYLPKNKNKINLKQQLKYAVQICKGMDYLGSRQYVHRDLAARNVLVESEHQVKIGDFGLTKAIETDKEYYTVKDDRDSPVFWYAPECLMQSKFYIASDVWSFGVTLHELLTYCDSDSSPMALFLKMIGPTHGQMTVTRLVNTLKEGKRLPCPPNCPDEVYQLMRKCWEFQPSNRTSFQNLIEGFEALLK", "details": "Compound concentration 1000.0 nM"}, "[13]": {"biological_target": "Serine/threonine-protein kinase 26 (Homo sapiens) (UniProt Q9P289)", "details": "Compound concentration 1000.0 nM"}, "[14]": {"biological_target": "5-hydroxytryptamine receptor 6 (Homo sapiens, UniProt P50406)", "assay": "GPCRScan assay: inhibition of 5-HT6", "set-up": "radioligand conc. used [nm] 2.0 – 4.0, parental cells stable HEK"}, "[15]": {"biological_target": "Serine/threonine-protein kinase NIM1 (Homo sapiens) (UniProt Q8IY84)", "details": "Compound concentration 1000.0 nM"}, "[16]": {"tested_on": "Phosphatidylinositol 4,5-bisphosphate 3-kinase catalytic subunit alpha isoform (Homo sapiens), P42336 [I800L]", "details": "Compound concentration 1000.0 nM"}, "[17]": {"biological_target": "T2, Ribosomal protein S6 kinase alpha-3 (Homo sapiens, UniProt P51812)", "T2 sequence (P51812 whole entry)": "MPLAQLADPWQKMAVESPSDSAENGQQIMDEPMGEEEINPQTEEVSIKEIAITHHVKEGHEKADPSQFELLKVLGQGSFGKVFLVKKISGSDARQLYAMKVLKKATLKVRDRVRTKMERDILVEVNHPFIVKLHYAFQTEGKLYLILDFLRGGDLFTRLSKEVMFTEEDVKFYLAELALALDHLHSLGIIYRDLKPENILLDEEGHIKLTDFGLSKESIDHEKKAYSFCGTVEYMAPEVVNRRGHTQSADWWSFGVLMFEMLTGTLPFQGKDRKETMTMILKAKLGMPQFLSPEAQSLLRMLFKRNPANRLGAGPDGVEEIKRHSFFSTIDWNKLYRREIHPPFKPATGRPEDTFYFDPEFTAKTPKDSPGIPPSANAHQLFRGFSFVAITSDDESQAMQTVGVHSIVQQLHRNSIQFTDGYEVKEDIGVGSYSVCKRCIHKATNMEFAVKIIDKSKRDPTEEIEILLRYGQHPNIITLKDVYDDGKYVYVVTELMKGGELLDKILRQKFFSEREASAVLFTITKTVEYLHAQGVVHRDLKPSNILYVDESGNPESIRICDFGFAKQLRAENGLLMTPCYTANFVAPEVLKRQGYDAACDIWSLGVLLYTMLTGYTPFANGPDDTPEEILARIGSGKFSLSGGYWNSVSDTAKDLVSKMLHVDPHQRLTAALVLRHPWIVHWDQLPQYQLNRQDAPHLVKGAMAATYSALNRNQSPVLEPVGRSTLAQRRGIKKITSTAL", "details": "Compound concentration 1000.0 nM"}, "[18]": {"biological_target": "T2, Ribosomal protein S6 kinase alpha-3", "details": "Compound concentration 1000.0 nM", "remark": "listed apart in the source"}, "[19]": {"biological_target": "Dual specificity protein kinase CLK3 (Homo sapiens) (UniProt P49761)", "details": "Compound concentration 1000.0 nM"}, "[20]": {"biological_target": "Ephrin type-A receptor 7 (Homo sapiens) (UniProt Q15375)", "details": "Compound concentration 1000.0 nM"}, "[21]": {"biological_target": "NUAK family SNF1-like kinase 1 (Homo sapiens) (UniProt O60285)", "sequence (O60285 whole entry)": "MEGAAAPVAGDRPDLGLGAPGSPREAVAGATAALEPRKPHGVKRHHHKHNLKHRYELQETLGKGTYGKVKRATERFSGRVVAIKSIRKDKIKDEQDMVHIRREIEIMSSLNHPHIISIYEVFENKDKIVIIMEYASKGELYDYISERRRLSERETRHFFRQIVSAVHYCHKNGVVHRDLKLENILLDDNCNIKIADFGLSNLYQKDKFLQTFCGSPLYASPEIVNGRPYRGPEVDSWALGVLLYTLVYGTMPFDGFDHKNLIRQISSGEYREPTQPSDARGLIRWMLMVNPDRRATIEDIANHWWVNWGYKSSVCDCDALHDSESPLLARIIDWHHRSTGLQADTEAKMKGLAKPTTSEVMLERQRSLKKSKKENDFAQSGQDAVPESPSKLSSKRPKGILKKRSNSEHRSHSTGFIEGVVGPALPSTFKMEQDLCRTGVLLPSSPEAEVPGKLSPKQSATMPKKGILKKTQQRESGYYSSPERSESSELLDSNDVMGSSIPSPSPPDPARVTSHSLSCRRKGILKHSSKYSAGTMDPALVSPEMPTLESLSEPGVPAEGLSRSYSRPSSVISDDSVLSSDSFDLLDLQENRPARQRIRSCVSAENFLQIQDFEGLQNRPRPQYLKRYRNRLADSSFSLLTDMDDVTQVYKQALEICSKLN", "details": "Compound concentration 1000.0 nM"}, "[22]": {"biological_target": "Ephrin type-B receptor 6 (Homo sapiens) (UniProt O15197)", "details": "Compound concentration 1000.0 nM"}, "[23]": {"biological_target": "Ribosomal protein S6 kinase alpha-1 (Homo sapiens) (UniProt Q15418)", "details": "Compound concentration 1000.0 nM"}, "[24]": {"biological_target": "Serine/threonine-protein kinase WNK3 (Homo sapiens) (UniProt Q9BYP7)", "details": "Compound concentration 1000.0 nM"}, "[25]": {"biological_target": "cAMP-dependent protein kinase catalytic subunit alpha (Homo sapiens) (UniProt P17612)", "details": "Compound concentration 1000.0 nM"}, "[26]": {"biological_target": "Serine/threonine-protein kinase 17A (Homo sapiens) (UniProt Q9UEE5)", "details": "Compound concentration 1000.0 nM"}, "[27]": {"tested_on": "Epidermal growth factor receptor (Homo sapiens), P00533 [L858R,T790M]", "details": "Compound concentration 1000.0 nM"}, "[28]": {"biological_target": "Serine/threonine-protein kinase LATS1 (Homo sapiens) (UniProt O95835)", "details": "Compound concentration 1000.0 nM"}, "[29]": {"biological_target": "Casein kinase II subunit alpha (Homo sapiens) (UniProt P68400)", "details": "Compound concentration 1000.0 nM"}, "[30]": {"biological_target": "Protein kinase C delta type (Homo sapiens) (UniProt Q05655)", "details": "Compound concentration 1000.0 nM"}, "[31]": {"biological_target": "Mitogen-activated protein kinase kinase kinase 1 (Homo sapiens) (UniProt Q13233)", "details": "Compound concentration 1000.0 nM"}, "[32]": {"biological_target": "cGMP-dependent protein kinase 2 (Homo sapiens) (UniProt Q13237)", "details": "Compound concentration 1000.0 nM"}, "[33]": {"biological_target": "Interferon-induced, double-stranded RNA-activated protein kinase (Homo sapiens) (UniProt P19525)", "details": "Compound concentration 1000.0 nM"}, "[34]": {"biological_target": "MAP kinase-activated protein kinase 5 (Homo sapiens) (UniProt Q8IW41)", "details": "Compound concentration 1000.0 nM"}, "[35]": {"biological_target": "Mitogen-activated protein kinase kinase kinase kinase 3 (Homo sapiens) (UniProt Q8IVH8)", "sequence (Q8IVH8 whole entry)": "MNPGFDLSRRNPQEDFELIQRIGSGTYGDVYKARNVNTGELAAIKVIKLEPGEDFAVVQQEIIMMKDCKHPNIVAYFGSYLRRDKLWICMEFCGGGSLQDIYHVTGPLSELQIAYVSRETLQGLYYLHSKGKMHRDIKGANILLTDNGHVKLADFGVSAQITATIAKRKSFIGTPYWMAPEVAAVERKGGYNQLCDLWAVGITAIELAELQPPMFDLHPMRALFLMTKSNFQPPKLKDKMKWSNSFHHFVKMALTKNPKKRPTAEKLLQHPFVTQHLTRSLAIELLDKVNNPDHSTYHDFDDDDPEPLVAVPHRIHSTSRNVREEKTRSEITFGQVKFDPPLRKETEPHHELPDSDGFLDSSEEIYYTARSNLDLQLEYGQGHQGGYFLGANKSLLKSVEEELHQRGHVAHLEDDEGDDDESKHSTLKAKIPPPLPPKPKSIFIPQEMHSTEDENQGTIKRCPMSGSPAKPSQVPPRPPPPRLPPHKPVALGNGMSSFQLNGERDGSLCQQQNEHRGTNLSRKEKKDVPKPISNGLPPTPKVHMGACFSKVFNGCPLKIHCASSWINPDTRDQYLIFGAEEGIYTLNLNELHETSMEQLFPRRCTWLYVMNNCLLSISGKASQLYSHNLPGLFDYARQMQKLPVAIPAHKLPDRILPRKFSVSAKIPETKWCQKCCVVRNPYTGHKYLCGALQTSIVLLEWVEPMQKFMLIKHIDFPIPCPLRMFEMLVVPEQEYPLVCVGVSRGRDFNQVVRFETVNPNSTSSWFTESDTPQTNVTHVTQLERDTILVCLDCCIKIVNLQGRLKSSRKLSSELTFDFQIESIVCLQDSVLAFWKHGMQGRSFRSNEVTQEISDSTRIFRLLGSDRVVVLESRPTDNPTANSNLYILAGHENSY", "details": "Compound concentration 1000.0 nM"}}}
{"smiles": "CC1=C(C#N)C(c2ccc3[nH]nc(C)c3c2)C(C#N)=C(C)N1", "note": "[BAY-474]", "values": [{"measurement": "inhibition", "setting": "[1]", "value": 25, "unit": "%"}, {"measurement": "inhibition", "setting": "[2]", "value": -5, "unit": "%"}, {"measurement": "inhibition", "setting": "Rattus norvegicus", "value": 4, "unit": "%"}, {"measurement": "inhibition", "setting": "Homo sapiens", "value": -1, "unit": "%"}, {"measurement": "inhibition", "setting": "[3]", "value": 26, "unit": "%"}, {"measurement": "inhibition", "setting": "[4]", "value": 2, "unit": "%"}, {"measurement": "inhibition", "setting": "[5]", "value": -9, "unit": "%"}, {"measurement": "inhibition", "setting": "[6]", "value": 7, "unit": "%"}]}
{"smiles": "CC1=C(C#N)[C@@H](c2ccc3[nH]nc(C)c3c2)C(C#N)=C(c2ccc(Cl)cc2)N1", "note": "[BAY-827]", "values": [{"measurement": "residual activity", "setting": "[7]", "value": 100, "unit": "%"}, {"measurement": "residual activity", "setting": "[8]", "value": 100, "unit": "%"}, {"measurement": "residual activity", "setting": "[9]", "value": 100, "unit": "%"}, {"measurement": "residual activity", "setting": "[10]", "value": 92, "unit": "%"}, {"measurement": "residual activity", "setting": "[11]", "value": 86.5, "unit": "%"}, {"measurement": "residual activity", "setting": "[12]", "value": 100, "unit": "%"}, {"measurement": "residual activity", "setting": "[13]", "value": 100, "unit": "%"}, {"measurement": "Ki", "setting": "[14]", "value": 674, "unit": "nM"}, {"measurement": "residual activity", "setting": "[15]", "value": 100, "unit": "%"}, {"measurement": "residual activity", "setting": "[16]", "value": 100, "unit": "%"}, {"measurement": "residual activity", "setting": "[17]", "value": 86.2, "unit": "%"}, {"measurement": "residual activity", "setting": "[18]", "value": 78.1, "unit": "%"}, {"measurement": "residual activity", "setting": "[19]", "value": 100, "unit": "%"}, {"measurement": "residual activity", "setting": "[20]", "value": 91.2, "unit": "%"}, {"measurement": "residual activity", "setting": "[21]", "value": 100, "unit": "%"}, {"measurement": "residual activity", "setting": "[22]", "value": 100, "unit": "%"}, {"measurement": "residual activity", "setting": "[23]", "value": 91.2, "unit": "%"}, {"measurement": "residual activity", "setting": "[24]", "value": 100, "unit": "%"}, {"measurement": "residual activity", "setting": "[25]", "value": 96.7, "unit": "%"}, {"measurement": "residual activity", "setting": "[26]", "value": 100, "unit": "%"}, {"measurement": "residual activity", "setting": "[27]", "value": 100, "unit": "%"}, {"measurement": "residual activity", "setting": "[28]", "value": 100, "unit": "%"}, {"measurement": "residual activity", "setting": "[29]", "value": 100, "unit": "%"}, {"measurement": "residual activity", "setting": "[30]", "value": 86.3, "unit": "%"}, {"measurement": "residual activity", "setting": "[31]", "value": 100, "unit": "%"}, {"measurement": "residual activity", "setting": "[32]", "value": 100, "unit": "%"}, {"measurement": "residual activity", "setting": "[33]", "value": 74.1, "unit": "%"}, {"measurement": "residual activity", "setting": "[34]", "value": 100, "unit": "%"}, {"measurement": "residual activity", "setting": "[35]", "value": 100, "unit": "%"}]}
